Laboratory results: US20250205235A1, “DOSE REGIMEN FOR VERICIGUAT” (ADVERIO PHARMA GMBH, priority 2023, published 2025)

Key:
[1] = tested on: participants with chronic heart failure with reduced ejection fraction; assay: Phase 2b open-label clinical study of tolerability and safety of a 5 mg initiation dose of vericiguat (NCT06195930)
Method: A Phase 2b open-label clinical study to evaluate the tolerability and safety of an initiation dose of 5 mg of Vericiguat in participants with chronic heart failure with reduced ejection fraction.
The patients had symptomatic chronic heart failure with reduced ejection fraction (HFrEF). […] Participants underwent a screening visit to assess eligibility. Eligible participants waited a mandatory 2 weeks before returning for Visit 1 in order to be clinically and hemodynamically stable. At Visit 1 (V1), participants received vericiguat with directions to take a 5 mg tablet once daily for 2 weeks. Participants returned for Visit 2 (V2) after 2 weeks of treatment. There were unplanned healthcare visits for heart failure between Visits 1 and 2 at the discretion of the investigator.
Primary objective was to evaluate the tolerability of 5 mg as a starting dose of vericiguat. Endpoint: Treatment tolerability, defined as the completion of the two-week 5 mg dose without discontinuation of study intervention and without moderate to severe symptomatic hypotension between Visit 1 (V1) and Visit 2 (V2) Secondary objective 1 was to describe safety events of initiation of 5 mg dose. Endpoints: Any adverse event reported between V1 and V2. Absence of adverse events related to study intervention between V1 and V2.
Secondary objective 2 was to further evaluate the tolerability of 5 mg as a starting dose of vericiguat. Endpoint: Continuous intake of study intervention between V1 and V2 or restart of study intervention after any temporary interruption.
Dose changes in GDMT medications (RAS blockade, Beta-blocker, MRA, or SGLT2i) or oral diuretics for 2 weeks were discouraged, except when mandated by known side-effects for individual drug classes (e.g., hyperkalemia for MRA or angioedema for ACE-inhibitors/ARNI). Use of short and long-acting nitrates was permitted.
On Days 1-14, 5.0 mg Verquvo® vericiguat was administered orally once daily. The endpoint was tolerability based on need for treatment interruption between Days 1 and Day 14.

[2] = some patients receiving vericiguat in clinical trials; cited from earlier work
[3] = 106 started treatment, 5 mg once daily for 2 weeks

Question: For `COC(=O)Nc1c(N)nc(-c2nn(Cc3ccccc3F)c3ncc(F)cc23)nc1N` [Vericiguat, methyl {4,6-diamino-2-[5-fluoro-1-(2-fluorobenzyl)-1H-pyrazolo[3,4-b]pyridin-3-yl]pyrimidin-5-yl}carbamate], which “Difference between participants with and without recent worsening heart failure events in meeting primary and secondary endpoints” value ([1]; 5 mg dose, 2 weeks) is on record?
Answer: no major differences

Question: What about the “Primary endpoint: participants who completed the 2-week treatment period without moderate to severe symptomatic hypotension and without temporary treatment interruptions exceeding 1 day” value ([1]; 5 mg dose, 2 weeks) of the same molecule?
Answer: 93.4%

Question: And the “Secondary endpoint 1: participants who completed the 2-week treatment period without reported intervention-related adverse events” value ([1]; 5 mg dose, 2 weeks)?
Answer: 90.6%

Question: And the “Secondary endpoint 2: participants who completed treatment with continuous intervention intake or restarted study intervention after a temporary interruption” value ([1]; 5 mg dose, 2 weeks)?
Answer: 96.2%

Question: And the “patients who continued through the 14-day titration without a medical need for interruption” value ([1]; 5.0 mg orally once daily, Days 1-14)?
Answer: at least 90%

Question: What about the “TREATMENT phase: Completed” value [1, 3] of the same molecule?
Answer: 102 (96.2%) Number of participants (%)

Question: What about the “TREATMENT phase: Did not complete” value [1, 3] of the same molecule?
Answer: 4 (3.8%) Number of participants (%)

Question: What about the “Tolerability of initiating treatment at 5 mg (in words)” value ([1]; HFrEF population with and without recent worsening heart failure events, on current GDMT) of the same molecule?
Answer: well tolerated

Question: And the “discontinuations for AE” value ([1]; OVERALL N = 106, SAF, 5 mg once daily, two weeks)?
Answer: 4 discontinuations

Question: What about the “Any AE” value ([1]; SAF N = 106, 5 mg) of the same molecule?
Answer: 14 (13.2%) Number (%) of participants

Question: And the “Any AE leading to discontinuation of intervention” value ([1]; SAF N = 106, 5 mg)?
Answer: 4 (3.8%) Number (%) of participants

Question: And the “Any AE leading to dose modification of study intervention (delays, interruptions and reductions)” value ([1]; SAF N = 106, 5 mg)?
Answer: 6 (5.7%) Number (%) of participants

Question: What about the “Any AE of special interest” value ([1]; SAF N = 106, 5 mg) of the same molecule?
Answer: 6 (5.7%) Number (%) of participants

Question: And the “Any AE related to procedures required by the protocol” value ([1]; SAF N = 106, 5 mg)?
Answer: 0 Number (%) of participants

Question: And the “Any SAE” value ([1]; SAF N = 106, 5 mg)?
Answer: 1 (0.9%) Number (%) of participants

Question: And the “Any SAE leading to discontinuation of intervention” value ([1]; SAF N = 106, 5 mg)?
Answer: 0 Number (%) of participants

Question: What about the “Any SAE related to procedures required by the protocol” value ([1]; SAF N = 106, 5 mg) of the same molecule?
Answer: 0 Number (%) of participants

Question: And the “Any intervention-related AE” value ([1]; SAF N = 106, 5 mg)?
Answer: 10 (9.4%) Number (%) of participants

Question: And the “Any intervention-related SAE” value ([1]; SAF N = 106, 5 mg)?
Answer: 0 Number (%) of participants

Question: What about the “Life-threatening SAE” value ([1]; SAF N = 106, 5 mg) of the same molecule?
Answer: 0 Number (%) of participants

Question: And the “Maximum intensity for any AE: MILD” value ([1]; SAF N = 106, 5 mg)?
Answer: 9 (8.5%) Number (%) of participants

Question: What about the “Maximum intensity for any AE: MODERATE” value ([1]; SAF N = 106, 5 mg) of the same molecule?
Answer: 4 (3.8%) Number (%) of participants

Question: And the “Maximum intensity for any AE: SEVERE” value ([1]; SAF N = 106, 5 mg)?
Answer: 1 (0.9%) Number (%) of participants

Question: And the “Maximum intensity for intervention-related AEs: MILD” value ([1]; SAF N = 106, 5 mg)?
Answer: 8 (7.5%) Number (%) of participants

Question: What about the “Maximum intensity for intervention-related AEs: MODERATE” value ([1]; SAF N = 106, 5 mg) of the same molecule?
Answer: 2 (1.9%) Number (%) of participants

Question: What about the “Participants with total duration of interruption/delay of 0 days” value ([1]; SAF N = 106, 5 mg) of the same molecule?
Answer: 102 (96.2%) n (%)

Question: What about the “Participants with total duration of interruption/delay of 1 day” value ([1]; SAF N = 106, 5 mg) of the same molecule?
Answer: 1 (0.9%) n (%)

Question: And the “Participants with total duration of interruption/delay of 2 days” value ([1]; SAF N = 106, 5 mg)?
Answer: 3 (2.8%) n (%)

Question: What about the SAE requiring hospitalization ([1]; SAF N = 106, 5 mg) of the same molecule?
Answer: 1 (0.9%) Number (%) of participants

Question: What about the “SAE resulting in substantial disruption of normal life functions” value ([1]; SAF N = 106, 5 mg) of the same molecule?
Answer: 0 Number (%) of participants

Question: What about the “SAE with fatal outcome” value ([1]; SAF N = 106, 5 mg) of the same molecule?
Answer: 0 Number (%) of participants

Question: And the “SAE: Congenital anomaly or birth defect” value ([1]; SAF N = 106, 5 mg)?
Answer: 0 Number (%) of participants

Question: What about the “SAE: Other” value ([1]; SAF N = 106, 5 mg) of the same molecule?
Answer: 0 Number (%) of participants

Question: And the “Total Duration of Interruption/Delay, Max” value ([1]; SAF N = 106, 5 mg)?
Answer: 2 days

Question: What about the “Total Duration of Interruption/Delay, Mean (SD)” value ([1]; SAF N = 106, 5 mg) of the same molecule?
Answer: 0.1 (0.3) ^ days

Question: What about the “Total Duration of Interruption/Delay, Median” value ([1]; SAF N = 106, 5 mg) of the same molecule?
Answer: 0.0 days

Question: And the “Total Duration of Interruption/Delay, Min” value ([1]; SAF N = 106, 5 mg)?
Answer: 0 days

Question: And the “TREATMENT phase: Did not complete, primary reason ADVERSE EVENT” value ([1]; percentage of the participants who did not complete)?
Answer: 4 (100.0%) Number of participants (%)

Question: What about the “Effect on systolic blood pressure compared with placebo” value [2] of the same molecule?
Answer: reduction of systolic blood pressure
